# How the values were obtained:
# Alternaria solani = experiment: In vivo preventive test on Alternaria solani (tomato); conditions: 500 ppm of active ingredient, evaluated 7 days after inoculation
# From the text: One day after this treatment, the plants are inoculated with an aqueous spore suspension of Alternaria solani.
# Pyrenophora teres = experiment: In vivo preventive test on Pyrenophora teres (barley); conditions: 500 ppm of active ingredient, evaluated 7-9 days after inoculation
# From the text: One day after this treatment, the plants are inoculated with an aqueous spore suspension of Pyrenophora teres.
# Sphaerotheca fuliginea = experiment: In vivo preventive test on Sphaerotheca fuliginea (cucumber); conditions: 500 ppm of active ingredient, evaluated 7 days after inoculation
# From the text: One day after this treatment, the plants are inoculated with an aqueous spore suspension of Sphaerotheca fuliginea.
# [1] = logP by HPLC on reversed-phase column (C 18), EEC Directive 79/831 Annex V.A8; format: physicochemical
# Description: In table 1, the logP values were determined in accordance with EEC Directive 79/831 Annex V.A8 by HPLC (High Performance Liquid Chromatography) on a reversed-phase column (C 18), using the method described below: Temperature: 40° C.; […]
# Fusarium graminearum = experiment: microbe, parasite or virus in culture; format: cell-based; conditions: 50 μM
# aflatoxines production = experiment: microbe, parasite or virus in culture; format: cell-based, Aspergillus parasiticus; conditions: 50 μM
# Leptosphaeria nodorum = experiment: In vivo preventive test on Leptosphaeria nodorum (wheat); conditions: 500 ppm of active ingredient, evaluated 7-9 days after inoculation
# From the text: One day after this treatment, the plants are inoculated with an aqueous spore suspension of Leptosphaeria nodorum.
Structure (SMILES),Efficacy (Alternaria solani) [%],Efficacy (Pyrenophora teres) [%],Efficacy (Sphaerotheca fuliginea) [%],logP [1],% Inhibition of fungal growth at 50 μM (Fusarium graminearum) [%],% Inhibition of Aflatoxin at 50 μM (aflatoxines production) [%],Efficacy (Leptosphaeria nodorum) [%]
Cn1nc(C(F)F)c(C(=O)NC(C)(C)Cc2ccc(Oc3ccccc3)cc2)c1Cl [Example 153],95,80,93,4.39,,,
CC(Cc1ccc(Cl)cc1Cl)NC(=S)c1c(C(F)F)nn(C)c1Cl (stereo not drawn) [Example 69],94,,95,4.29,86,100,
CC(Cc1ccc(Cl)cc1Cl)NC(=O)c1c(C(F)F)nn(C)c1Cl (stereo not drawn) [Example 68],95,100,99,3.67,100,100,
CC(Cc1ccccc1F)N(C(=S)c1c(C(F)F)nn(C)c1F)C1CC1 (stereo not drawn) [Example 21],95,100,100,4.01,,,
COC(CNC(=S)c1c(C(F)F)nn(C)c1F)c1cc(Cl)cc(Cl)c1 (stereo not drawn) [Example 110],80,100,75,4.19,,,
CC(Cc1ccc(Oc2ccccc2)cc1)NC(=S)c1c(C(F)F)nn(C)c1F (stereo not drawn) [Example 156],89,100,93,4.29,,,
Cn1nc(C(F)F)c(C(=O)NC2CC2c2ccccc2C(F)(F)F)c1F (stereo not drawn) [Example 225],95,100,80,3.00,83,97,
Cn1nc(C(F)F)c(C(=S)NCCc2ccc(Cl)cc2Cl)c1F [Example 71],94,100,85,3.99,,,
Cc1scc(CCNC(=O)c2c(C(F)F)nn(C)c2F)c1C [Example 167],100,100,90,2.82,100,100,
Cn1nc(C(F)F)c(C(=O)NCC(C)(C)c2cc(Cl)ccc2Cl)c1Cl [Example 101],100,70,83,3.89,86,100,
CC(CN(C(=S)c1c(C(F)F)nn(C)c1Cl)C1CC1)c1ccccc1 (stereo not drawn) [Example 16],95,100,,4.11,,,95
Cn1nc(C(F)F)c(C(=O)N(C2CC2)C2CCCCC2c2ccc(Cl)cc2Cl)c1F (stereo not drawn) [Example 217],,,99,5.05,,,
CC(Cc1ccccc1F)N(C(=O)c1c(C(F)F)nn(C)c1F)C1CC1 (stereo not drawn) [Example 19],100,100,,3.37,100,100,70
CN(CCc1cc(Cl)ccc1Cl)C(=S)c1c(C(F)F)nn(C)c1F [Example 96],95,100,,3.87,82,100,90
Cn1nc(C(F)F)c(C(=O)N(C2CC2)C2CCCCC2c2ccccc2Cl)c1F (stereo not drawn) [Example 216],71,95,100,4.49,84,100,
Cn1nc(C(F)F)c(C(=O)N(CCc2ccccc2)C2CC2)c1Cl [Example 12],100,100,,3.06,92,100,
Cn1nc(C(F)F)c(C(=O)NC[Si](C)(C)c2cccc(Cl)c2)c1Cl [Example 236],100,100,,3.71,84,99,
Cn1nc(C(F)F)c(C(=O)NCCc2cc(Cl)ccc2Cl)c1Cl [Example 91],95,100,,3.29,100,100,
Cn1nc(C(F)F)c(C(=O)NC2CC2c2cccc(F)c2)c1F (stereo not drawn) [Example 222],,100,,2.59,81,99,90

Structure (SMILES),Efficacy (Alternaria solani) [%],Efficacy (Pyrenophora teres) [%],Efficacy (Sphaerotheca fuliginea) [%],logP [1],% Inhibition of fungal growth at 50 μM (Fusarium graminearum) [%],% Inhibition of Aflatoxin at 50 μM (aflatoxines production) [%],Efficacy (Leptosphaeria nodorum) [%]
CCC(CNC(=O)c1c(C(F)F)nn(C)c1Cl)c1ncc(C(F)(F)F)cc1Cl (stereo not drawn) [Example 193],100,100,83,3.73,91,100,
CC(CNC(=O)c1c(C(F)F)nn(C)c1F)c1ccc(C(F)(F)F)cc1 (stereo not drawn) [Example 127],100,100,,3.25,100,100,
Cn1nc(C(F)F)c(C(=O)NC[Si](C)(C)c2ccccc2)c1Cl [Example 227],95,100,,3.31,71,87,
Cn1nc(C(F)F)c(C(=O)NC2CCCCC2c2ccccc2)c1Cl (stereo not drawn) [Example 215],78,100,93,3.51,,,
Cn1nc(C(F)F)c(C(=O)NC[Si](C)(C)c2cccc(Cl)c2)c1F [Example 237],100,100,,3.55,100,100,
CN(CCc1ccc(F)cc1)C(=O)c1c(C(F)F)nn(C)c1F [Example 22],100,100,,2.50,100,100,
CC(CNC(=O)c1c(C(F)F)nn(C)c1Cl)c1cc(Cl)ccc1Cl (stereo not drawn) [Example 98],95,94,,3.55,95,100,
Cn1nc(C(F)F)c(C(=O)N(C[Si](C)(C)c2ccsc2)C2CC2)c1F [Example 248],94,100,,3.55,100,100,94
CC(CNC(=O)c1c(C(F)F)nn(C)c1Cl)c1cccc(C(F)(F)F)c1 (stereo not drawn) [Example 125],95,100,,3.35,78,99,
Cn1nc(C(F)F)c(C(=O)NC(C)(C)Cc2ccc(Oc3ccccc3)cc2)c1F [Example 150],95,78,100,4.19,,,
CCN(CCc1ccc(Cl)cc1)C(=O)c1c(C(F)F)nn(C)c1F [Example 56],100,100,,3.19,93,100,
CC(Cc1ccc(Oc2ccccc2)cc1)NC(=O)c1c(C(F)F)nn(C)c1Cl (stereo not drawn) [Example 154],100,100,,3.83,80,99,
CN(CCc1ccccc1Cl)C(=O)c1c(C(F)F)nn(C)c1Cl [Example 36],100,95,,2.92,94,100,
Cn1nc(C(F)F)c(C(=O)NCC(C)(C)c2ccc(Cl)cc2Cl)c1F [Example 87],95,94,,3.81,94,100,70
CC(CNC(=O)c1c(C(F)F)nn(C)c1Cl)c1cc(Cl)cc(Cl)c1 (stereo not drawn) [Example 112],95,100,,3.73,83,100,
CC(Cc1ccccc1Cl)NC(=S)c1c(C(F)F)nn(C)c1F (stereo not drawn) [Example 37],94,100,98,3.61,78,94,
CC(C)C(CNC(=O)c1c(C(F)F)nn(C)c1F)c1ccc(Cl)cc1 (stereo not drawn) [Example 60],100,100,,3.78,96,100,
CC(Cc1ccccc1Cl)NC(=S)c1c(C(F)F)nn(C)c1Cl (stereo not drawn) [Example 38],89,100,85,3.72,,,
Cn1nc(C(F)F)c(C(=O)NC[Si](C)(C)c2ccccc2)c1F [Example 228],100,100,,3.13,93,100,

# From patent publication US9232799B2, “N-[(het)arylethyl)] pyrazole(thio)carboxamides and their heterosubstituted analogues” (BAYER INTELLECTUAL PROPERTY GMBH, priority 2010, dated 2016)
